Assay results taken from ChEMBL document CHEMBL1130614, “Design and synthesis of a pyridone-based phosphotyrosine mimetic” (Bioorg Med Chem Lett, 1998).

What was measured:
[1] = Inhibition of CD19 phosphopeptide binding to p85 N-terminal SH2 domain at 20 uM.
[2] = molecular target: Platelet-derived growth factor receptor (Homo sapiens, UniProt P09619+P16234); experiment: Inhibition of PDGF-beta receptor binding to p85 SH2-domain; format: protein-complex assay
[3] = Inhibition of CD19 phosphopeptide binding to p85 N-terminal SH2 domain at 50 uM.

inhibition [3] [%]	Compound	inhibition [1] [%]	IC50 [2] [nM]
–	CCCCN(CCCC)C(=O)[C@H](C)NC(=O)[C@@H](NC(=O)[C@H](Cc1ccc(OP(=O)(O)O)cc1)NC(C)=O)C(C)C	98	77
50	CCCCN(CCCC)C(=O)[C@H](C)NC(=O)[C@@H](NC(=O)[C@H](Cc1ccn(CP(=O)(O)O)c(=O)c1)NC(C)=O)C(C)C	–	–
